Like-named read-outs stand apart in the source and are kept apart here.
Tests used:
IRAK4 enzyme = IRAK4 enzyme (Homo sapiens (Human), UniProt Q9NWZ3); assay: biochemical; type: biochemical; details: IRAK4 enzyme, 500 μM ATP
TNFα = assay: cells; type: cell-based, human; details: LPS-stimulated human monocytes, read-out: EC50 TNF
[1] = Homo sapiens, Monocyte, TNFα content
[2] = Homo sapiens, Monocyte, TNFα by TR-FRET

Sequence of IRAK4 enzyme (Q9NWZ3 whole entry): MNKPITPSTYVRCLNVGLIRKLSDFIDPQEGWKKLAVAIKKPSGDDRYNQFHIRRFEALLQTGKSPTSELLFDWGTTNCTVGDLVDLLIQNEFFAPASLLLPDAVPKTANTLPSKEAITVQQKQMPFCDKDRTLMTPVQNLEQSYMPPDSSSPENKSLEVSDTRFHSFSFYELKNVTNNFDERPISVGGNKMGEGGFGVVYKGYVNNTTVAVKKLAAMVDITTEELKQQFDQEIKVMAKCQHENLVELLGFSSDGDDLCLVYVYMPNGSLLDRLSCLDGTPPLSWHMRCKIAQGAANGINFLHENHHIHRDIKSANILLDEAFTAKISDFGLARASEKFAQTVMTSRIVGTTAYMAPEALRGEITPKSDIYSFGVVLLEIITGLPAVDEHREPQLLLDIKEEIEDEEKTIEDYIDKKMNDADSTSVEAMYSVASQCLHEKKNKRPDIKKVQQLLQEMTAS

Cc1ncoc1-c1ccc(Nc2cc(-c3ccc4cc(C#N)cnn34)ncc2C(=O)NC[C@@H](F)C(C)(C)O)cn1 [Example 632, (R)-6-(3-cyanopyrrolo[1,2-b]pyridazin-7-yl)-N-(2-fluoro-3-hydroxy-3-methylbutyl)-4-((6-(4-methyloxazol-5-yl)pyridin-3-yl)amino) nicotinamide] was tested, and the IC50 (IRAK4 enzyme; TR-FRET (HTRF)) was < 1 nM and the EC50 (TNFα; [1]) was 28 nM.
COc1cc(Nc2cc(-c3ccc4cc(C#N)cnn34)ncc2C(=O)NC[C@@H](F)C(C)(C)O)ncn1 [Example 846, (R)-6-(3-cyanopyrrolo[1,2-b]pyridazin-7-yl)-N-(2-fluoro-3-hydroxy-3-methylbutyl)-4-((6-methoxy-pyrimidin-4-yl)amino) nicotinamide] showed an IC50 (IRAK4 enzyme; TR-FRET) of 2 nM and an EC50 (TNFα; [2]) of 97 nM.
CC(C)Nc1cc(-c2ccc3cc(C#N)cnn23)ncc1C(=O)NC1CCC(C)(O)CC1 (centres unmarked) [Example 90, 6-(3-cyanopyrrolo[1,2-b]pyridazin-7-yl)-N-((1s,4s)-4-hydroxy-4-methylcyclohexyl)-4-(isopropylamino) nicotinamide] showed an IC50 (IRAK4 enzyme; TR-FRET) of 3 nM and an EC50 (TNFα; [1]) of 417 nM.
Molecule COC(=O)N1CCC12CC(Nc1cc(-c3ccc4cc(C#N)cnn34)ncc1C(=O)NC[C@@H](F)C(C)(C)O)C2 (stereo partly drawn) [Example 909, (4S,6r)-methyl 6-((2-(3-cyanopyrrolo[1,2-b]pyridazin-7-yl)-5-(((R)-2-fluoro-3-hydroxy-3-methylbutyl)carbamoyl)pyridin-4-yl)amino)-1-azaspiro[3.3]heptane-1-carboxylate] has an IC50 (IRAK4 enzyme; TR-FRET) of 15 nM and an EC50 (TNFα; TNFα by TR-FRET) of 372 nM.
In the case of COCC(=O)N[C@H]1CC[C@H](Nc2cc(-c3ccc4cc(C#N)cnn34)ncc2C(=O)NC[C@@H](F)C(C)(C)O)CC1 [Example 284, 6-(3-cyanopyrrolo[1,2-b]pyridazin-7-yl)-N-((R)-2-fluoro-3-hydroxy-3-methylbutyl)-4-(((1r,4R)-4-(2-methoxyacetamido)cyclohexyl)amino) nicotinamide], the IC50 (IRAK4 enzyme; TR-FRET) is reported as 1 nM and the EC50 (TNFα; [1]) is reported as 88 nM.
In the case of CC(C)(O)[C@H](F)CNC(=O)c1cnc(-c2ccc3cc(C#N)cnn23)cc1N[C@H]1CCN(C2COC2)C1 [Example 110, 6-(3-cyanopyrrolo[1,2-b]pyridazin-7-yl)-N-((R)-2-fluoro-3-hydroxy-3-methylbutyl)-4-(((S)-1-(oxetan-3-yl)pyrrolidin-3-yl)amino) nicotinamide], the IC50 (IRAK4 enzyme; TR-FRET) is reported as 4 nM and the EC50 (TNFα; [1]) is reported as 191 nM.
For CNC(=O)[C@H]1CC[C@@H](Nc2cc(-c3ccc4cc(C#N)cnn34)ncc2C(=O)NC[C@@H](F)C(C)(C)O)CC1 [Example 362, 6-(3-cyanopyrrolo[1,2-b]pyridazin-7-yl)-N-((R)-2-fluoro-3-hydroxy-3-methylbutyl)-4-(((1s,4S)-4-(methylcarbamoyl)cyclo-hexyl)amino)nicotinamide], the IC50 (IRAK4 enzyme; TR-FRET) was 9 nM and the EC50 (TNFα; [1]) was 1430 nM.
For CC(C)(O)[C@H](F)CNC(=O)c1cnc(-c2ccc3cc(C#N)cnn23)cc1N[C@H]1C[C@H](Cn2cncn2)C1 [Example 776, 4-(((1r,3R)-3-((1H-1,2,4-triazol-1-yl)methyl)cyclo-butyl)amino)-6-(3-cyano-pyrrolo[1,2-b]pyridazin-7-yl)-N-((R)-2-fluoro-3-hydroxy-3-methylbutyl) nicotinamide], the IC50 (IRAK4 enzyme; TR-FRET (HTRF)) was 1 nM and the EC50 (TNFα; [1]) was 32 nM.
CC(C)(C)NC(=O)c1cnc(-c2ccc3cc(C#N)cnn23)cc1NC12CCC(O)(CC1)CC2 [Example 357, N-(tert-butyl)-6-(3-cyano-pyrrolo[1,2-b]pyridazin-7-yl)-4-((4-hydroxy-bicyclo[2.2.2]octan-1-yl)amino)nicotinamide] showed an IC50 (IRAK4 enzyme; TR-FRET) of 9 nM and an EC50 (TNFα; [1]) of 413 nM.
Molecule CC(C)(O)[C@H](F)CNC(=O)c1cnc(-c2ccc3cc(C#N)cnn23)cc1N[C@H]1C[C@H](CNCC(F)(F)F)C1 [Example 700, 6-(3-cyanopyrrolo[1,2-b]pyridazin-7-yl)-N—((R)-2-fluoro-3-hydroxy-3-methylbutyl)-4-(((1r,3R)-3-(((2,2,2-trifluoroethyl)amino)methyl)cyclobutyl)amino)nicotinamide] has an IC50 (IRAK4 enzyme; TR-FRET (HTRF)) of 2 nM and an EC50 (TNFα; [1]) of 151 nM.
CC(C)(O)[C@H](F)CNC(=O)c1cnc(-c2ccc3cc(C#N)cnn23)cc1NC12CCC(C(=O)N3CC(C(F)F)C3)(CC1)CC2 [Example 393, (R)-6-(3-cyanopyrrolo[1,2-b]pyridazin-7-yl)-4-((4-(3-(difluoromethyl)azetidine-1-carbonyl)bicyclo[2.2.2]octan-1-yl)amino)-N-(2-fluoro-3-hydroxy-3-methylbutyl)nicotinamide] was tested, and the IC50 (IRAK4 enzyme; TR-FRET) was < 1 nM and the EC50 (TNFα; [1]) was 44 nM.
Molecule CC(=O)N1Cc2ccc(Nc3cc(-c4ccc5cc(C#N)cnn45)ncc3C(=O)NC[C@@H](F)C(C)(C)O)cc2C1 [Example 197, (R)-4-((2-acetylisoindolin-5-yl)amino)-6-(3-cyanopyrrolo[1,2-b]pyridazin-7-yl)-N-(2-fluoro-3-hydroxy-3-methylbutyl)nicotinamide] has an IC50 (IRAK4 enzyme; TR-FRET) of 1 nM and an EC50 (TNFα; [1]) of 42 nM.
In the case of COC(=O)N1CCC(n2cc(Nc3cc(-c4ccc5cc(C#N)cnn45)ncc3C(=O)NC[C@@H](F)C(C)(C)O)cn2)CC1 [Example 235, (R)-methyl 4-(4-((2-(3-cyanopyrrolo[1,2-b]pyridazin-7-yl)-5-((2-fluoro-3-hydroxy-3-methylbutyl)carbamoyl)pyridin-4-yl)amino)-1H-pyrazol-1-yl)piperidine-1-carboxylate], the IC50 (IRAK4 enzyme; TR-FRET) is reported as 2 nM and the EC50 (TNFα; [1]) is reported as 166 nM.
For CC(C)(O)[C@H](F)CNC(=O)c1cnc(-c2ccc3cc(C#N)cnn23)cc1Nc1nc(-c2ccccc2)cs1 [Example 363, (R)-6-(3-cyanopyrrolo[1,2-b]pyridazin-7-yl)-N-(2-fluoro-3-hydroxy-3-methylbutyl)-4-((4-phenyl-thiazol-2-yl)amino) nicotinamide], the IC50 (IRAK4 enzyme; TR-FRET) was 5 nM and the EC50 (TNFα; [1]) was 328 nM.
Cn1ccc(Nc2cc(-c3ccc4cc(C#N)cnn34)ncc2C(=O)NC[C@@H](F)C(C)(C)O)cc1=O [Example 442, (R)-6-(3-cyanopyrrolo[1,2-b]pyridazin-7-yl)-N-(2-fluoro-3-hydroxy-3-methylbutyl)-4-((1-methyl-2-oxo-1,2-dihydropyridin-4-yl)amino)nicotinamide] gave an IC50 (IRAK4 enzyme; TR-FRET (HTRF)) of 1 nM and an EC50 (TNFα; [1]) of 104 nM.
Work on CC(C)(O)[C@H](F)CNC(=O)c1cnc(-c2ccc3cc(C#N)cnn23)cc1N[C@@H]1C[C@@H]2CC[C@H]1O2 [Example 93, 4-(((1R,2R,4S)-7-oxabicyclo[2.2.1]heptan-2-yl)amino)-6-(3-cyano-pyrrolo[1,2-b]pyridazin-7-yl)-N-((R)-2-fluoro-3-hydroxy-3-methylbutyl)nicotinamide] yielded an IC50 (IRAK4 enzyme; TR-FRET) of 1 nM and an EC50 (TNFα; [1]) of 78 nM.
CC(=O)N[C@H]1CC[C@@H](Nc2cc(-c3ccc4cc(C#N)cnn34)ncc2C(=O)NC[C@@H](F)C(C)(C)O)CC1 [Example 320, 4-(((1s,4S)-4-acetamidocyclohexyl)amino)-6-(3-cyano-pyrrolo[1,2-b]pyridazin-7-yl)-N-((R)-2-fluoro-3-hydroxy-3-methylbutyl) nicotinamide] gave an IC50 (IRAK4 enzyme; TR-FRET) of 3 nM and an EC50 (TNFα; [1]) of 1910 nM.
With CC(C)(O)[C@H](F)CNC(=O)c1cnc(-c2ccc3cc(C#N)cnn23)cc1Nc1cnsc1 [Example 59, (R)-6-(3-cyanopyrrolo[1,2-b]pyridazin-7-yl)-N-(2-fluoro-3-hydroxy-3-methylbutyl)-4-(isothiazol-4-ylamino)nicotinamide] the IC50 (IRAK4 enzyme; TR-FRET) was < 1 nM and the EC50 (TNFα; [1]) was 57 nM.
CC(C)(O)[C@H](F)CNC(=O)c1cnc(-c2ccc3cc(C#N)cnn23)cc1NC1CCN(C2COC2)CC1 [Example 83, (R)-6-(3-cyanopyrrolo[1,2-b]pyridazin-7-yl)-N-(2-fluoro-3-hydroxy-3-methylbutyl)-4-((1-(oxetan-3-yl)piperidin-4-yl)amino) nicotinamide] was tested, and the IC50 (IRAK4 enzyme; TR-FRET) was 1 nM and the EC50 (TNFα; [1]) was 221 nM.
For CC(C)(O)[C@H](F)CNC(=O)c1cnc(-c2ccc3cc(C#N)cnn23)cc1Nc1cnc2cc[nH]c2c1 [Example 566, (R)-4-((1H-pyrrolo[3,2-b]pyridin-6-yl)amino)-6-(3-cyanopyrrolo[1,2-b]pyridazin-7-yl)-N-(2-fluoro-3-hydroxy-3-methyl-butyl)nicotinamide], the IC50 (IRAK4 enzyme; TR-FRET (HTRF)) was < 1 nM and the EC50 (TNFα; [1]) was 27 nM.
CC(C)(O)[C@H](F)CNC(=O)c1cnc(-c2ccc3cc(C#N)cnn23)cc1NCc1ccccn1 [Example 171, (R)-6-(3-cyanopyrrolo[1,2-b]pyridazin-7-yl)-N-(2-fluoro-3-hydroxy-3-methylbutyl)-4-((pyridin-2-ylmethyl)amino) nicotinamide] gave an IC50 (IRAK4 enzyme; TR-FRET) of 6 nM and an EC50 (TNFα; [1]) of 382 nM.
With CCOc1cncc(Nc2cc(-c3ccc4cc(C#N)cnn34)ncc2C(=O)NC[C@@H](F)C(C)(C)O)n1 [Example 845, (R)-6-(3-cyanopyrrolo[1,2-b]pyridazin-7-yl)-4-((6-ethoxypyrazin-2-yl)amino)-N-(2-fluoro-3-hydroxy-3-methylbutyl)nicotinamide] the IC50 (IRAK4 enzyme; TR-FRET) was < 1 nM and the EC50 (TNFα; [2]) was > 10000 nM.
In the case of CCOc1cc(Nc2cc(-c3ccc4cc(C#N)cnn34)ncc2C(=O)NC[C@@H](F)C(C)(C)O)ccn1 [Example 847, (R)-6-(3-cyanopyrrolo[1,2-b]pyridazin-7-yl)-4-((2-ethoxypyridin-4-yl)amino)-N-(2-fluoro-3-hydroxy-3-methylbutyl)nicotinamide], the IC50 (IRAK4 enzyme; TR-FRET) is reported as < 1 nM and the EC50 (TNFα; [2]) is reported as 69 nM.
For CC(C)(O)[C@H](F)CNC(=O)c1cnc(-c2ccc3cc(C#N)cnn23)cc1Nc1ccc(-c2ncco2)cc1 [Example 228, (R)-6-(3-cyanopyrrolo[1,2-b]pyridazin-7-yl)-N-(2-fluoro-3-hydroxy-3-methylbutyl)-4-((4-(oxazol-2-yl)phenyl)amino) nicotinamide], the IC50 (IRAK4 enzyme; TR-FRET) was 2 nM and the EC50 (TNFα; [1]) was 114 nM.
CC(C)(O)[C@H](F)CNC(=O)c1cnc(-c2ccc3cc(C#N)cnn23)cc1Nc1ccc(C(=O)N2CCC2)cc1 [Example 349, (R)-4-((4-(azetidine-1-carbonyl)phenyl)amino)-6-(3-cyanopyrrolo[1,2-b]pyridazin-7-yl)-N-(2-fluoro-3-hydroxy-3-methylbutyl)nicotinamide] was tested, and the IC50 (IRAK4 enzyme; TR-FRET) was 1 nM and the EC50 (TNFα; [1]) was 77 nM.
